Assay results: patent US20040224958A1, “Pyridopyrimidinone derivatives for treatment of neurodegenerative disease” (priority 2000, published 2004)

Columns and labels:
[1] = molecular target: cdk2/cyclinA (Homo sapiens, UniProt P24941); experiment: Cyclin-Dependent Kinase Assay cdk2/cyclinA; conditions: cdk2/A IC50
[2] = molecular target: cdc2/cyclinB (Homo sapiens, UniProt P06493); experiment: Cyclin-Dependent Kinase Assay cdc2/cyclinB
[3] = molecular target: cdk2/cyclinE (Homo sapiens, UniProt P24941); experiment: Cyclin-Dependent Kinase Assay cdk2/cyclinE; conditions: cdk2/E IC50
[4] = molecular target: cdk4/D (Homo sapiens, UniProt P11802); experiment: Cyclin-Dependent Kinase 4 (cdk4) Assay; assay type: biochemical; conditions: read-out: cdk4/D IC50
cdk4/D, sequence (P11802 whole entry): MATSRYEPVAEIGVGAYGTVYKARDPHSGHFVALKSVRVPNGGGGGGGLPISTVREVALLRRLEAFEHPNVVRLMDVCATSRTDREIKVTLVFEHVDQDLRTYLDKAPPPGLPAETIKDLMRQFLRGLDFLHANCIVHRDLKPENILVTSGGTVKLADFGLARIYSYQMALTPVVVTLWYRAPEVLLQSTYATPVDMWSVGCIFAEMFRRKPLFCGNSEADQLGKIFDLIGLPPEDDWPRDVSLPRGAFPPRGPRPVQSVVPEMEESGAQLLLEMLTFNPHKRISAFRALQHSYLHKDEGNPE
cdk4/D, sequence (P24385 whole entry, further chain): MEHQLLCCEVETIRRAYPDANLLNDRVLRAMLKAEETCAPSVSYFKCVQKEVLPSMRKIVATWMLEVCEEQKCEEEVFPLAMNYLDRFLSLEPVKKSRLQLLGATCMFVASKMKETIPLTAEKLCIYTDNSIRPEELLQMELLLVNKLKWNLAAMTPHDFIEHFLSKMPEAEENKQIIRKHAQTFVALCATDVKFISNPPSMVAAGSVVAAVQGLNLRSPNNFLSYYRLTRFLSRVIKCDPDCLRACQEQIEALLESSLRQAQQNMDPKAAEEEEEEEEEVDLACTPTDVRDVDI

[5] = molecular target: Cdk5/p25 (Homo sapiens, UniProt Q00535); experiment: Cyclin-Dependent Kinase 5 High Throughput Screening (cdk5-HTS) Assay; assay type: biochemical; conditions: high throughput screen
Outline: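 Cdk5/p25 (1.0 μg/mL) phosphorylates GST-RbCOOH (20 μg/mL) in 50 mM Tris pH 7.4 with 10 mM MgCl2 and 20 μM ATP spiked with [γ33P]ATP, 30 min at room temperature. After EDTA stop, substrate captured on glutathione-coated plates; 33P incorporation counted by scintillation; IC50 determined.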

cdc2/cyclinB, sequence (P06493 whole entry): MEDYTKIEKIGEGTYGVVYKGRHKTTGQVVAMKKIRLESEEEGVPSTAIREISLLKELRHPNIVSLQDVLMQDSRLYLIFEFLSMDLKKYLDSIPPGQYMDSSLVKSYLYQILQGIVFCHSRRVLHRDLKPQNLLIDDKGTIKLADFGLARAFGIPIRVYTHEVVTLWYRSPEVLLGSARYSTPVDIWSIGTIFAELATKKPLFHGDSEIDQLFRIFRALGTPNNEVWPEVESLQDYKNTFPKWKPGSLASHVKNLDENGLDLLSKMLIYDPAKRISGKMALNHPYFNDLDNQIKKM
cdc2/cyclinB, sequence (P14635 whole entry, further chain): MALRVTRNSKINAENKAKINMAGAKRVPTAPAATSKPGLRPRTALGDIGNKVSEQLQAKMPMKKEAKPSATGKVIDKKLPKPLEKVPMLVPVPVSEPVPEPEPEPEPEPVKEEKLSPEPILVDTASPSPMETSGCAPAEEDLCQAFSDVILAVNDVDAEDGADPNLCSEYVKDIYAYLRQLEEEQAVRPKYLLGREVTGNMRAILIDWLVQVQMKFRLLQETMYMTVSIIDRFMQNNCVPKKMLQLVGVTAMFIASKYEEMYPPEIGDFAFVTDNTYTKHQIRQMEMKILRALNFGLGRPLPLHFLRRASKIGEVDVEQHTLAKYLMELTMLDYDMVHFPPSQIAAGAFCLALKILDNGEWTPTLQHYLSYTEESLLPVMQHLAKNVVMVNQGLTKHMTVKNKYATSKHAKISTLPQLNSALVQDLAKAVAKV

Row | IC50 [1] [nM] | IC50 [2] [nM] | IC50 [3] [nM] | IC50 [4] [nM] | IC50 [5] [nM] | Structure (SMILES)
1 | 25.5 | 49.5 | 8.5 | 42 | 12.3 | O=c1ccc2cnc(Nc3ccc4[nH]nnc4c3)nc2n1C1CCCC1 [Example 537, 2-(1H-Benzotriazol-5-ylamino)-8-cyclopentyl-8H-pyrido[2,3-d]pyrimidin-7-one]
2 | 140 | 170 | 100 | 98 | 39 | O=C1CSc2ccc(Nc3ncc4ccc(=O)n(CC5CC5)c4n3)cc2N1 [Example 584, 8-Cyclopropylmethyl-2-(3-oxo-3,4-dihydro-2H-1,4-benzothiazin-6-ylamino)-8H-pyrido[2,3-d]pyrimidin-7-one]
3 | 670 | 710 | 100 | 2600 | 260 | O=c1ccc2cnc(Nc3cc(F)c(F)c(F)c3)nc2n1CC1CC1 [Example 588, 8-Cyclopropylmethyl-2-(3,4,5-trifluoro-phenylamino)-8H-pyrido[2,3-d]pyrimidin-7-one]
4 | 1300 | 330 | 310 | 150 | 64 | CCC(CC)n1c(=O)ccc2cnc(Nc3ccc(Br)c(Cl)c3)nc21 [Example 507, 2-(4-Bromo-3-chloro-phenylamino)-8-(1-ethyl-propyl)-8H-pyrido[2,3-d]pyrimidin-7-one]
5 | 1700 | 550 | 500 | 280 | 210 | COc1cc(Nc2ncc3ccc(=O)n(C4CCCC4)c3n2)cc(C(F)(F)F)c1 [Example 543, 8-Cyclopentyl-2-(3-methoxy-5-trifluoromethyl-phenylamino)-8H-pyrido[2,3-d]pyrimidin-7-one]
6 | 925 | 540 | 400 | 230 | 250 | CCn1c(=O)ccc2cnc(Nc3ccc4[nH]ccc4c3)nc21 [Example 621, 8-Ethyl-2-(1H-indol-5-ylamino)-8H-pyrido[2,3-d]pyrimidin-7-one]
7 | 14 | 36 | 16 | 290 | 55 | O=c1ccc2cnc(Nc3ccc(O)c([N+](=O)[O-])c3)nc2n1C1CCCC1 [Example 551, 8-Cyclopentyl-2-(4-hydroxy-3-nitro-phenylamino)-8H-pyrido[2,3-d]pyrimidin-7-one]
8 | 260 | 76 | 56 | 100 | 8.8 | CCC(C)n1c(=O)ccc2cnc(Nc3ccc(C)c(I)c3)nc21 (stereo not shown) [Example 465]
9 | 1010 | 435 | 317 | 2000 | 250 | O=c1ccc2cnc(Nc3ccc(O)c(Cl)c3)nc2n1CC(F)(F)F [Example 597, 2-(3-Chloro-4-hydroxy-phenylamino)-8-(2,2,2-trifluoro-ethyl)-8H-pyrido[2,3-d]pyrimidin-7-one]
10 | 74 | 34.5 | 46.5 | 12.7 | 36.3 | O=c1ccc2cnc(Nc3ccc4[nH]ccc4c3)nc2n1C1CCCC1 [Example 528, 8-Cyclopentyl-2-(1H-indol-5-ylamino)-8H-pyrido[2,3-d]pyrimidin-7-one]
11 | 1800 | 460 | 780 | 550 | 82 | CCC(C)n1c(=O)ccc2cnc(Nc3cc(Cl)c(Cl)c(Cl)c3)nc21 (stereo not shown) [Example 461, 8-sec-Butyl-2-(3,4,5-trichloro-phenylamino)-8H-pyrido[2,3-d]pyrimidin-7-one]
12 | 160 | 46.5 | 80 | 480 | 55.5 | CCC(CC)n1c(=O)ccc2cnc(Nc3cc(Cl)c(O)c(Cl)c3)nc21 [Example 497, 2-(3,5-Dichloro-4-hydroxy-phenylamino)-8-(1-ethyl-propyl)-8H-pyrido[2,3-d]pyrimidin-7-one]
13 | 200 | 49.5 | 47 | 170 | 68 | CCC(CC)n1c(=O)ccc2cnc(Nc3cccc([N+](=O)[O-])c3)nc21 [Example 498, 8-(1-Ethyl-propyl)-2-(3-nitro-phenylamino)-8H-pyrido[2,3-d]pyrimidin-7-one]
14 | 41 | 77.5 | 17.3 | 128 | 7.8 | CCC(C)n1c(=O)ccc2cnc(Nc3ccc4[nH]nnc4c3)nc21 (stereo not shown) [Example 449, 2-(1H-Benzotriazol-5-ylamino)-8-sec-butyl-8H-pyrido[2,3-d]pyrimidin-7-one]
15 | 86 | 51 | 41 | 120 | 9.8 | CCC(CC)n1c(=O)ccc2cnc(Nc3ccc4c(c3)NC(=O)CS4)nc21 [Example 520, 8-(1-Ethyl-propyl)-2-(3-oxo-3,4-dihydro-2H-1,4-benzothiazin-6ylamino)-8H-pyrido[2,3-d]pyrimidin-7-one]
16 | 2850 | 1650 | 1200 | 1450 | 400 | O=c1ccc2cnc(Nc3ccccc3)nc2n1CC(F)(F)F [Example 601, 2-Phenylamino-8-(2,2,2-trifluoro-ethyl)-8H-pyrido[2,3-d]pyrimidin-7-one]

Second part, the molecule before the results:

Row | Structure (SMILES) | IC50 [1] [nM] | IC50 [2] [nM] | IC50 [3] [nM] | IC50 [4] [nM] | IC50 [5] [nM]
17 | CCC(C)n1c(=O)ccc2cnc(Nc3ccccc3)nc21 (stereo not shown) [Example 446, 8-sec-Butyl-2-phenylamino-8H-pyrido[2,3-d]pyrimidin-7-one] | 215 | 340 | 177 | 168 | 74.5
18 | CCCn1c(=O)ccc2cnc(Nc3ccc(I)c(Cl)c3)nc21 [Example 344, 2-(3-Chloro-4-iodo-phenylamino)-8-propyl-8H-pyrido[2,3-d]pyrimidin-7-one] | 990 | 360 | 470 | 370 | 46
19 | CCC(C)n1c(=O)ccc2cnc(Nc3ccc4[nH]ncc4c3)nc21 (stereo not shown) [Example 448, 8-sec-Butyl-2-(1H-indazol-5-ylamino)-8H-pyrido[2,3-d]pyrimidin-7-one] | 52 | 26.5 | 20 | 46 | 8.5
20 | CCCCn1c(=O)ccc2cnc(Nc3ccc4[nH]ncc4c3)nc21 [Example 379, 8-Butyl-2-(1H-indazol-5-ylamino)-8H-pyrido[2,3-d]pyrimidin-7-one] | 84 | 43 | 27.3 | 140 | 46.5
21 | CC(C)n1c(=O)ccc2cnc(Nc3cccc([N+](=O)[O-])c3)nc21 [Example 406, 8-Isopropyl-2-(3-nitro-phenylamino)-8H-pyrido[2,3-d]pyrimidin-7-one] | 160 | 113 | 94.7 | 260 | 52.5
22 | CC(C)n1c(=O)ccc2cnc(Nc3ccc(S(N)(=O)=O)cc3)nc21 [Example 418, 4-(8-Isopropyl-7-oxo-7,8-dihydro-pyrido[2,3-d]pyrimidin-2-ylamino)-benzenesulfonamide] | 33 | 90 | 27 | 130 | 15
23 | CCCn1c(=O)ccc2cnc(Nc3ccc4c(c3)CCN4)nc21 [Example 357, 2-(2,3-Dihydro-1H-indol-5-ylamino)-8-propyl-8H-pyrido[2,3-d]pyrimidin-7-one] | 1600 | 2100 | 700 | 360 | 290
24 | Cn1c(=O)ccc2cnc(Nc3ccccc3)nc21 [Example 285, 8-Methyl-2-phenylamino-81H-pyrido[2,3-d]pyrimidin-7-one] | 2800 | 865 | 2270 | 2750 | 255
25 | CCCn1c(=O)ccc2cnc(Nc3ccc(C#N)cc3)nc21 [Example 322, 4-(7-Oxo-8-propyl-7,8-dihydro-pyrido[2,3-d]pyrimidin-2-ylamino)-benzonitrile] | 554 | 597 | 300 | 637 | 228
26 | CCn1c(=O)ccc2cnc(Nc3ccc(O)cc3F)nc21 [Example 289, 8-Ethyl-2-(2-fluoro-4-hydroxy-phenylamino)-8H-pyrido[2,3-d]pyrimidin-7-one] | 2000 | 1250 | 1160 | 3250 | 720
27 | CCCn1c(=O)ccc2cnc(Nc3cccc(C(F)(F)F)c3)nc21 [Example 313, 8-Propyl-2-(3-trifluoromethyl-phenylamino)-8H-pyrido[2,3-d]pyrimidin-7-one] | 1480 | 360 | 334 | 3040 | 309
28 | CCn1c(=O)ccc2cnc(Nc3ccc(F)c(C)c3)nc21 [Example 294, 8-Ethyl-2-(4-fluoro-3-methyl-phenylamino)-8H-pyrido[2,3-d]pyrimidin-7-one] | 640 | 210 | 130 | 410 | 43
29 | CCCn1c(=O)ccc2cnc(Nc3ccc(OC)c(F)c3)nc21 [Example 338, 2-(3-Fluoro-4-methoxy-phenylamino)-8-propyl-8H-pyrido[2,3-d]pyrimidin-7-one] | 340 | 570 | 170 | 270 | 48
